The values that follow come from PubChem BioAssay (NCI).

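Dose response: 5 concentrations. Exposure: 48 h. Format: 96-well plates. Endpoint: linear interpolation; highest concentration if not reached. At the TGI there is no net growth.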

Test systems include 786-0 renal; UACC-257 melanoma; SF-539 CNS; SF-268 CNS; K-562 leukemia; SR leukemia; DU-145 prostate; UO-31 renal.
What all share (assay): DTP human tumour cell line panel, 48 h

What is called TGI is the concentration at which net growth stops. A high value points to less potent growth arrest. For `COc1ccc2c(c1)nc1n2C(c2c(F)cccc2Cl)SC1` (centres undefined), the TGI in the test on 786-0 renal was greater than 41.1 µM; in the test with UACC-257 melanoma, greater than 43.2 µM; with SF-539 CNS it was 16.1 µM; in the test with SF-268 CNS, 90.6 µM; with K-562 leukemia it was greater than 100 µM; with SR leukemia it was greater than 36.4 µM. Moreover, the TGI is greater than 29.3 µM in the test on DU-145 prostate and greater than 100 µM in the test on UO-31 renal.
In the case of `Cc1nc2ccccc2c(=O)n1NC(=O)c1ccccc1O`, the TGI in the test with 786-0 renal, in the test with UACC-257 melanoma, with SF-539 CNS, with SF-268 CNS, in the test on K-562 leukemia and with SR leukemia was greater than 100 µM in each case. The TGI with DU-145 prostate and in the test on UO-31 renal was greater than 100 µM in each case.
In the case of `O=c1cc(-c2ccccc2)oc2ccc(Oc3nnnn3-c3ccccc3)cc12`, the TGI in the test on 786-0 renal is greater than 100 µM; in the test on UACC-257 melanoma, greater than 100 µM; with SF-539 CNS, greater than 86.8 µM; with SF-268 CNS, 25.3 µM; with K-562 leukemia it was greater than 100 µM; with SR leukemia, greater than 100 µM. Also, the TGI with DU-145 prostate and in the test with UO-31 renal was greater than 100 µM in each case.
As for `CC1C/C(=N\N(C)C)C(C#N)(C#N)C1(C#N)C#N` (centres undefined), the TGI was 14.6 µM in the test on 786-0 renal; 28 µM in the test with UACC-257 melanoma; 34.8 µM in the test with SF-539 CNS; 24.8 µM with SF-268 CNS; greater than 100 µM in the test with K-562 leukemia; 17.2 µM in the test with SR leukemia. Moreover, the results for the TGI in the test with DU-145 prostate and in the test on UO-31 renal were 34 µM and 30.3 µM, respectively.
As to `CC1(C)CN=C(Nc2ccc(Cl)cc2)S1`, the TGI in the test on 786-0 renal, in the test on UACC-257 melanoma, in the test on SF-539 CNS, in the test with SF-268 CNS, with K-562 leukemia and with SR leukemia was greater than 100 µM throughout. Besides, the TGI with DU-145 prostate and in the test on UO-31 renal was greater than 100 µM in each case.
`CC(C)(C)OC(=O)NC(Cc1cnc[nH]1)C(=O)N1CCCC1C(N)=O` (centres undefined): the TGI in the test on 786-0 renal, in the test with UACC-257 melanoma, in the test with SF-539 CNS, in the test with SF-268 CNS, with K-562 leukemia and with SR leukemia was greater than 100 µM in each case. Besides, the TGI in the test with DU-145 prostate and with UO-31 renal was greater than 100 µM in each case.
As for `CCN(CC)Cc1nc(C2CCC([N+](=O)[O-])O2)no1` (centres undefined), the TGI in the test on 786-0 renal was greater than 100 µM; with UACC-257 melanoma, 40.8 µM; with SF-539 CNS it was 49 µM; in the test on SF-268 CNS, 79.6 µM; with K-562 leukemia, greater than 100 µM; with SR leukemia, greater than 100 µM. Moreover, the TGI with DU-145 prostate and in the test on UO-31 renal was greater than 100 µM each time.
In the case of `O=C(Nc1ccccc1C(=O)O)/C(=C/c1ccccc1)NC(=O)c1ccccc1`, the TGI with 786-0 renal, with UACC-257 melanoma, in the test with SF-539 CNS, with SF-268 CNS, with K-562 leukemia and with SR leukemia was greater than 100 µM throughout. Moreover, the TGI with DU-145 prostate and in the test with UO-31 renal was greater than 100 µM in each case.
On to `N=C(N)n1[nH]c2c(c1=O)CCCC2`, for which the TGI in the test on 786-0 renal, with UACC-257 melanoma, with SF-539 CNS, in the test with SF-268 CNS, in the test with K-562 leukemia and with SR leukemia was greater than 100 µM each time. Further, the TGI in the test with DU-145 prostate and with UO-31 renal was greater than 100 µM in each case.
`CCOC(=O)c1cc2c([nH]1)C(=O)CC1=C2CCN1Cc1ccccc1`: the TGI amounted to 31 µM with 786-0 renal; 36.1 µM with UACC-257 melanoma; 39.4 µM in the test on SF-539 CNS; 43.6 µM with SF-268 CNS; 25.9 µM in the test on K-562 leukemia; 33.4 µM with SR leukemia. Besides, the TGI with DU-145 prostate stood at 28.6 µM; in the test with UO-31 renal, 29.5 µM.
Take `COc1cc(C(N)=O)cc(NC(=O)/C=C/c2ccccc2)c1OC`: the TGI in the test with 786-0 renal, in the test with UACC-257 melanoma, in the test with SF-539 CNS, in the test with SF-268 CNS, in the test on K-562 leukemia and with SR leukemia was greater than 100 µM throughout. Moreover, the TGI with DU-145 prostate and in the test with UO-31 renal was greater than 100 µM throughout.
Take `CC1OC(OC2C(O)COC(OC3C(C)OC(OC4C(OC(=O)[C@]56CCC(C)(C)C[C@@H]5C5=CCC7[C@@]8(C)C[C@H](O)[C@H](OC9OC(CO)C(O)C(OC%10OC(CO)C(O)C(O)C%10O)C9O)[C@@](C)(CO)[C@@H]8CC[C@@]7(C)[C@]5(C)CC6)OCC(O)C4O)C(O)C3OC3OCC(O)C(O)C3O)C2O)C(O)C(O)C1O` (some centres undefined): the TGI was 17.7 µM in the test with 786-0 renal; 16.8 µM with UACC-257 melanoma; 32.1 µM with SF-539 CNS; 30 µM with SF-268 CNS; greater than 52.3 µM in the test with K-562 leukemia; 27 µM in the test with SR leukemia. Besides, the results for the TGI in the test with DU-145 prostate and in the test on UO-31 renal were 19.7 µM and 9.92 µM, respectively.
Consider `CC(C)CC(=O)NC(NC(C)C)(C(F)(F)F)C(F)(F)F`, for which the TGI in the test with 786-0 renal, in the test with UACC-257 melanoma, in the test on SF-539 CNS, in the test on SF-268 CNS, in the test with K-562 leukemia and in the test with SR leukemia was greater than 100 µM each time. Besides, the TGI in the test with DU-145 prostate and with UO-31 renal was greater than 100 µM each time.
